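Each compound was tested at five concentrations against cells in 96-well plates for 48 hours. GI50 = concentration required for 50% inhibition of growth. TGI marks complete inhibition of growth.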
Columns and labels:
Assay in all cases: NCI-60 cell line screen, 48 h
786-0 renal = tested on: 786-0 renal
A498 renal = tested on: A498 renal
A549 NSCLC = tested on: A549 NSCLC
ACHN renal = tested on: ACHN renal
BT-549 breast = tested on: BT-549 breast
CAKI-1 renal = tested on: CAKI-1 renal
CCRF-CEM leukemia = tested on: CCRF-CEM leukemia
COLO 205 colon = tested on: COLO 205 colon
DU-145 prostate = tested on: DU-145 prostate
EKVX NSCLC = tested on: EKVX NSCLC
HCC-2998 colon = tested on: HCC-2998 colon
HCT-116 colon = tested on: HCT-116 colon
HCT-15 colon = tested on: HCT-15 colon
HL-60(TB) leukemia = tested on: HL-60(TB) leukemia
HOP-62 NSCLC = tested on: HOP-62 NSCLC
HOP-92 NSCLC = tested on: HOP-92 NSCLC
HS 578T breast = tested on: HS 578T breast
HT29 colon = tested on: HT29 colon
IGROV1 ovarian = tested on: IGROV1 ovarian
K-562 leukemia = tested on: K-562 leukemia
KM12 colon = tested on: KM12 colon
LOX IMVI melanoma = tested on: LOX IMVI melanoma
M14 melanoma = tested on: M14 melanoma
MALME-3M melanoma = tested on: MALME-3M melanoma
MCF7 breast = tested on: MCF7 breast
MDA-MB-231 breast = tested on: MDA-MB-231 breast
MDA-MB-435 = tested on: MDA-MB-435
MOLT-4 leukemia = tested on: MOLT-4 leukemia
NCI-H226 lung = tested on: NCI-H226 lung
NCI-H23 lung = tested on: NCI-H23 lung
NCI-H460 lung = tested on: NCI-H460 lung
NCI-H522 lung = tested on: NCI-H522 lung
NCI/ADR-RES ovarian = tested on: NCI/ADR-RES ovarian
OVCAR-3 ovarian = tested on: OVCAR-3 ovarian
OVCAR-4 ovarian = tested on: OVCAR-4 ovarian
OVCAR-5 ovarian = tested on: OVCAR-5 ovarian
OVCAR-8 ovarian = tested on: OVCAR-8 ovarian
PC-3 prostate = tested on: PC-3 prostate
RPMI-8226 leukemia = tested on: RPMI-8226 leukemia
RXF 393 renal = tested on: RXF 393 renal
SF-268 CNS = tested on: SF-268 CNS
SF-295 CNS = tested on: SF-295 CNS
SF-539 CNS = tested on: SF-539 CNS
SK-MEL-2 melanoma = tested on: SK-MEL-2 melanoma
SK-MEL-28 melanoma = tested on: SK-MEL-28 melanoma
SK-MEL-5 melanoma = tested on: SK-MEL-5 melanoma
SK-OV-3 ovarian = tested on: SK-OV-3 ovarian
SN12C renal = tested on: SN12C renal
SNB-19 CNS = tested on: SNB-19 CNS
SNB-75 CNS = tested on: SNB-75 CNS
SR leukemia = tested on: SR leukemia
SW-620 colon = tested on: SW-620 colon
T-47D breast = tested on: T-47D breast
TK-10 renal = tested on: TK-10 renal
U251 CNS = tested on: U251 CNS
UACC-257 melanoma = tested on: UACC-257 melanoma
UACC-62 melanoma = tested on: UACC-62 melanoma
UO-31 renal = tested on: UO-31 renal
MDA-N = tested on: MDA-N

O=c1[nH]cnc2c1nnn2C1OC(CO)C(O)C1O (stereo unspecified)
GI50 (786-0 renal): 2.58 µM | TGI (786-0 renal): > 100 µM | GI50 (A498 renal): 5 µM | TGI (A498 renal): > 100 µM | GI50 (A549 NSCLC): 29.1 µM | TGI (A549 NSCLC): > 100 µM | GI50 (ACHN renal): 1.04 µM | TGI (ACHN renal): > 100 µM | GI50 (BT-549 breast): 7.77 µM | TGI (BT-549 breast): > 100 µM | GI50 (CAKI-1 renal): 0.735 µM | TGI (CAKI-1 renal): > 45.1 µM | GI50 (CCRF-CEM leukemia): 0.551 µM | TGI (CCRF-CEM leukemia): > 28 µM | GI50 (COLO 205 colon): 1.44 µM | TGI (COLO 205 colon): 9.94 µM | GI50 (DU-145 prostate): 0.548 µM | TGI (DU-145 prostate): 14 µM | GI50 (EKVX NSCLC): 60.4 µM | TGI (EKVX NSCLC): > 100 µM | GI50 (HCC-2998 colon): 2.65 µM | TGI (HCC-2998 colon): 24.5 µM | GI50 (HCT-116 colon): 3.88 µM | TGI (HCT-116 colon): > 100 µM | GI50 (HCT-15 colon): 1.21 µM | TGI (HCT-15 colon): > 100 µM | GI50 (HL-60(TB) leukemia): 0.617 µM | TGI (HL-60(TB) leukemia): > 43.9 µM | GI50 (HOP-62 NSCLC): 2.67 µM | TGI (HOP-62 NSCLC): > 100 µM | GI50 (HOP-92 NSCLC): 1.66 µM | TGI (HOP-92 NSCLC): > 100 µM | GI50 (HS 578T breast): 4.27 µM | TGI (HS 578T breast): 69.8 µM | GI50 (HT29 colon): 2.15 µM | TGI (HT29 colon): > 100 µM | GI50 (IGROV1 ovarian): 1.27 µM | TGI (IGROV1 ovarian): > 57.7 µM | GI50 (K-562 leukemia): 3.97 µM | TGI (K-562 leukemia): > 100 µM | GI50 (KM12 colon): 3.89 µM | TGI (KM12 colon): > 100 µM | GI50 (LOX IMVI melanoma): 0.779 µM | TGI (LOX IMVI melanoma): > 100 µM | GI50 (M14 melanoma): 1.84 µM | TGI (M14 melanoma): > 56.2 µM | GI50 (MALME-3M melanoma): 2.64 µM | TGI (MALME-3M melanoma): > 59 µM | GI50 (MCF7 breast): 1.41 µM | TGI (MCF7 breast): > 78.8 µM | GI50 (MDA-MB-231 breast): 4.49 µM | TGI (MDA-MB-231 breast): > 100 µM | GI50 (MDA-MB-435): 3.51 µM | TGI (MDA-MB-435): > 100 µM | GI50 (MOLT-4 leukemia): 2.44 µM | TGI (MOLT-4 leukemia): > 100 µM | GI50 (NCI-H226 lung): 4.88 µM | TGI (NCI-H226 lung): > 100 µM | GI50 (NCI-H23 lung): 4.25 µM | TGI (NCI-H23 lung): > 100 µM | GI50 (NCI-H460 lung): 1.11 µM | TGI (NCI-H460 lung): > 100 µM | GI50 (NCI-H522 lung): 1.48 µM | TGI (NCI-H522 lung): 14 µM | GI50 (NCI/ADR-RES ovarian): 0.835 µM | TGI (NCI/ADR-RES ovarian): > 31.4 µM | GI50 (OVCAR-3 ovarian): 0.816 µM | TGI (OVCAR-3 ovarian): 4.98 µM | GI50 (OVCAR-4 ovarian): 0.416 µM | TGI (OVCAR-4 ovarian): 37.6 µM | GI50 (OVCAR-5 ovarian): 26.6 µM | TGI (OVCAR-5 ovarian): > 100 µM | GI50 (OVCAR-8 ovarian): 0.683 µM | TGI (OVCAR-8 ovarian): > 100 µM | GI50 (PC-3 prostate): 2.43 µM | TGI (PC-3 prostate): > 100 µM | GI50 (RPMI-8226 leukemia): 1.33 µM | TGI (RPMI-8226 leukemia): 21.5 µM | GI50 (RXF 393 renal): 1.62 µM | TGI (RXF 393 renal): 32.2 µM | GI50 (SF-268 CNS): 6.81 µM | TGI (SF-268 CNS): > 100 µM | GI50 (SF-295 CNS): 1.71 µM | TGI (SF-295 CNS): > 65.7 µM | GI50 (SF-539 CNS): 4.06 µM | TGI (SF-539 CNS): 63.8 µM | GI50 (SK-MEL-2 melanoma): 12.3 µM | TGI (SK-MEL-2 melanoma): > 100 µM | GI50 (SK-MEL-28 melanoma): 16.7 µM | TGI (SK-MEL-28 melanoma): > 100 µM | GI50 (SK-MEL-5 melanoma): 5.59 µM | TGI (SK-MEL-5 melanoma): 30.3 µM | GI50 (SK-OV-3 ovarian): 0.375 µM | TGI (SK-OV-3 ovarian): > 100 µM | GI50 (SN12C renal): 6.57 µM | TGI (SN12C renal): > 100 µM | GI50 (SNB-19 CNS): 19.6 µM | TGI (SNB-19 CNS): > 100 µM | GI50 (SNB-75 CNS): 2.43 µM | TGI (SNB-75 CNS): > 100 µM | GI50 (SR leukemia): 3.37 µM | TGI (SR leukemia): > 100 µM | GI50 (SW-620 colon): 1.69 µM | TGI (SW-620 colon): > 100 µM | GI50 (T-47D breast): 0.736 µM | TGI (T-47D breast): > 100 µM | GI50 (TK-10 renal): 1.5 µM | TGI (TK-10 renal): > 30.2 µM | GI50 (U251 CNS): 20.4 µM | TGI (U251 CNS): > 100 µM | GI50 (UACC-257 melanoma): 12.3 µM | TGI (UACC-257 melanoma): > 100 µM | GI50 (UACC-62 melanoma): 4.65 µM | TGI (UACC-62 melanoma): 42.8 µM | GI50 (UO-31 renal): 2.75 µM | TGI (UO-31 renal): > 100 µM

O=C1CCCC2=C1C(c1ccc3c(c1)OCO3)Nc1ccc3ccccc3c12 (stereo unspecified)
TGI (786-0 renal): > 100 µM | TGI (A498 renal): > 100 µM | TGI (A549 NSCLC): > 100 µM | TGI (ACHN renal): 65.7 µM | TGI (BT-549 breast): > 100 µM | TGI (CAKI-1 renal): > 100 µM | TGI (CCRF-CEM leukemia): > 100 µM | TGI (COLO 205 colon): > 100 µM | TGI (DU-145 prostate): > 100 µM | TGI (EKVX NSCLC): > 100 µM | TGI (HCC-2998 colon): > 100 µM | TGI (HCT-116 colon): > 100 µM | TGI (HCT-15 colon): > 100 µM | TGI (HOP-62 NSCLC): > 100 µM | TGI (HS 578T breast): > 100 µM | TGI (HT29 colon): > 100 µM | TGI (IGROV1 ovarian): > 100 µM | TGI (KM12 colon): > 100 µM | TGI (M14 melanoma): > 100 µM | TGI (MALME-3M melanoma): > 100 µM | TGI (MCF7 breast): > 100 µM | TGI (MDA-MB-231 breast): > 100 µM | TGI (MDA-MB-435): > 100 µM | TGI (MDA-N): > 100 µM | TGI (NCI-H226 lung): > 100 µM | TGI (NCI-H23 lung): > 100 µM | TGI (NCI-H460 lung): > 100 µM | TGI (NCI-H522 lung): > 100 µM | TGI (NCI/ADR-RES ovarian): > 100 µM | TGI (OVCAR-3 ovarian): > 100 µM | TGI (OVCAR-5 ovarian): > 100 µM | TGI (OVCAR-8 ovarian): > 100 µM | TGI (RPMI-8226 leukemia): > 100 µM | TGI (RXF 393 renal): > 100 µM | TGI (SF-268 CNS): > 100 µM | TGI (SF-295 CNS): > 100 µM | TGI (SF-539 CNS): > 100 µM | TGI (SK-MEL-2 melanoma): > 100 µM | TGI (SK-MEL-28 melanoma): > 100 µM | TGI (SK-MEL-5 melanoma): > 100 µM | TGI (SK-OV-3 ovarian): > 100 µM | TGI (SN12C renal): > 100 µM | TGI (SNB-19 CNS): > 100 µM | TGI (SNB-75 CNS): > 100 µM | TGI (SW-620 colon): > 100 µM | TGI (TK-10 renal): > 100 µM | TGI (U251 CNS): > 100 µM | TGI (UACC-257 melanoma): > 100 µM | TGI (UACC-62 melanoma): > 100 µM | TGI (UO-31 renal): > 100 µM
